Measured values: patent EP1258527A1, “Membrane-associated shingomyelinase derived from bovine brain, isolation method therfor and anti-sphingomyelinase monocional antibody” (SK Corporation, priority 2001, dated 2002)
“Also recorded” adds a separate entry of the source. Read-outs that look alike come from different tables or passages of the source.

Columns and labels:
N-mSMase ε = test: N-mSMase activity assay: influence of cations, reducing agents and surfactants on enzyme activity; type: biochemical, bovine; settings: for influence of reducing agents on N-mSMase ε activity: 0.5-10 mM, relative to control without reducing agent; for influence of agents similar to glutathione on N-mSMase ε activity: 1, 3, 5 or 10 mM; for inhibition of activity at 10 mM: glutathione concentration of 10 mM
Experimental: (§1) After being dried with a nitrogen stream, [N-methyl-^14 C]sphingomyelin (choline residue labeled with ^14C) was suspended in ethanol. 10 µl of a sample was mixed with 100 µl of a reaction solution (10 mM MgSO4, 50 µM [N-methyl-^14 C]sphingomyelin (c.a. 60,000 cpm), 2 mM sodium deoxycholate, 100 mM Tris-HCl (pH 7.0)) and incubated at 37 °C for 30 min. Addition of 320 µl of a mixture of chloroform/methanol (1:1 volume ratio) and 30 µl of 2N hydrochloride stopped the reaction. After vortexing and centrifuging the resulting mixture at 10,000xg, 200 µl of the aqueous layer was mixed with 2.5 ml of a scintillation cocktail, such as that manufactured by Packard Instrument Co., U.S.A., identified as "Insta gel-XF", followed by measuring the radioactivity with the aid of a Packard Tricarb liquid β-scintillation counter.
(§2) Separately, the same Lineweaver-Burk analysis was carried out, but in the presence of 0.4, 1.0 and 2.0 mM sodium deoxycholate.
In order to examine the dependency of N-mSMase ε activity on Mg^2+, Fraction B obtained in Step 6 of Example 1 was desalted by being applied to a PD-10 column (Sephadex G-25, Pharmacia Biotechnology Co., Sweden). For use, the column was equilibrated twice with distilled water, in advance. The desalted protein fraction (corresponding to protein 10 ng) was measured for N-mSMase ε activity in the presence of 1, 5, 10 and 25 mM of MgCl2 in the manner described in Experimental Example 1.
An examination was made of the influence of other cations, such as Ca^2+, Fe^3+, Fe^2+, Zn^2+, Cu^2+ and […] on the activity of N-mSMase ε. To a solution containing the desalted protein fraction (corresponding to protein 10 ng) obtained in C and 5 mM MgCl2, CaCl2, FeCl3, FeCl2, ZnCl2 or CuCl2 was added to yield a final concentration of 0.01, 0.02, 0.05, 0.1, 0.25 or 0.5 mM, followed by the measurement of N-mSMase ε activity in accordance with the procedure of Experimental Example 1.
After the addition of 10 µl of [N-methyl-^14C]sphingomyelin, the N-mSMase activity was measured according to the procedure of Experimental Example 1. For comparison, a Tris-HCl buffer containing no reducing agents was used as a control. The N-mSMase ε activity influenced by the reducing agents was expressed as a percentage relative to the control.
After being treated with 1, 3, 5 or 10 mM of GSSG, cystein, cystein-glycine or γ-glutaric acid-cystein, the activity of N-mSMase ε was measured in the same manner.
Sodium deoxycholate and Triton X-100 were selected as surfactants to be tested. The protein fraction obtained in C (corresponding to 10 ng of protein) was measured for N-mSMase ε activity in reaction solutions containing 0.5, 1, 2 and 5 mM of sodium deoxycholate, respectively, in accordance with the procedure of Experimental Example 1. In the case of Triton X-100, it was prepared at concentrations of 0.05, 0.01, 0.5 and 0.1 %.

[1] = tested on: partially purified N-mSMase; settings: partially purified rat brain N-mSMase (Liu et al.); cited from earlier work
[2] = tested on: N-mSMase ε, membrane-associated, Mg^2+-dependent, neutral pH optimum sphingomyelinase (60 kDa) from bovine brain; test: Lineweaver-Burk kinetic analysis (N-mSMase activity assay); type: biochemical
Experimental: as §1
The N-mSMase ε prepared in Step 6 of Example 1 was subjected to Lineweaver-Burk analysis. In this regard, enzyme N-mSMase ε was used at amounts of 10 ng or less with the substrate sphingomyelin varying, in concentration, from 6.25 to 100 µM.
as §2

[3] = cation chloride added at 0.01-0.5 mM in the presence of 5 mM MgCl2, read-out: IC50 (inhibition of enzyme activity, hydrolysis of sphingomyelin)

O[C@H](CS)[C@H](O)CS (racemic) [DTT, dithiothreitol]
influence of reducing agents on N-mSMase ε activity (N-mSMase ε): not inhibited
influence of reducing agents on N-mSMase ε activity (N-mSMase ε; listed as dithiothreitol): neither dithiothreitol nor 2-mercaptoethanol has any influence
effect on activity of partially purified N-mSMase [1]: promoted

OCCS [2-mercaptoethanol]
influence of reducing agents on N-mSMase ε activity (N-mSMase ε): not inhibited; also recorded: neither dithiothreitol nor 2-mercaptoethanol has any influence

[Ca+2].[Cl-].[Cl-] [Ca^2+, CaCl2]
influence on the activity of N-mSMase ε (N-mSMase ε; concentration of 0.5 mM or less, 5 mM MgCl2): no influence

[Cl][Cu][Cl] [Cu^2+, CuCl2]
IC50 (N-mSMase ε; [3]): 28 µM

[Cl-].[Cl-].[Mg+2] [Mg^2+, MgCl2]
dependency of N-mSMase ε activity on Mg^2+ (N-mSMase ε; 1, 5, 10 and 25 mM MgCl2, desalted fraction): Mg^2+-concentration dependent

[Cl-].[Cl-].[Zn+2] [Zn^2+, ZnCl2]
IC50 (N-mSMase ε; [3]): 32 µM

N[C@@H](CS)C(=O)O [cystein]
influence of agents similar to glutathione on N-mSMase ε activity (N-mSMase ε): inhibited; also recorded: reduction in the activity

N[C@@H](CCC(=O)N[C@@H](CS)C(=O)NCC(=O)O)C(=O)O [glutathione]
IC50 (N-mSMase ε; glutathione 0.5-10 mM, preincubation 37 °C 10 min, read-out: IC50 (inhibition of sphingomyelinase activity)): 8000 µM
inhibition of activity at 10 mM (N-mSMase ε): completely inhibited
inhibition of activity at 10 mM (N-mSMase ε; listed as Glutathione): fully inhibited
change of activity with concentration up to 3 mM (N-mSMase ε; glutathione up to 3 mM): increases

N[C@@H](CCC(=O)N[C@@H](CS)C(=O)O)C(=O)O [γ-glutaric acid-cystein]
influence of agents similar to glutathione on N-mSMase ε activity (N-mSMase ε): inhibited; also recorded: reduction in the activity

oxidized glutathione [GSSG]
influence of agents similar to glutathione on N-mSMase ε activity (N-mSMase ε): inhibited; also recorded: reduction in the activity

phosphatidylserine
effect on activity of partially purified N-mSMase [1]: promoted

sodium deoxycholate
effect on Km value of N-mSMase ε (N-mSMase ε; Lineweaver-Burk analysis in the presence of 0.4, 1.0 and 2.0 mM sodium deoxycholate): could not change

sphingomyelin
Km ([2]; substrate sphingomyelin 6.25 to 100 µM, enzyme 10 ng or less, absence of surfactants): 47 µM
Km value in the presence of sodium deoxycholate ([2]; substrate sphingomyelin, 0.4, 1.0 and 2.0 mM sodium deoxycholate): could not change
